# According to US20250289786A1, “CHLORINATED MONOCARBONYL CURCUMIN COMPOUNDS, PREPARATION METHOD, AND APPLICATION” (Southwest Medical University, priority 2024, published 2025):
# Assays:
# [1] = Solubility detection of CAK01-CAK07; format: physicochemical
# Text: The chlorinated monocarbonyl curcumin compounds CAK01-CAK07 prepared under the conditions of Example 1 were taken for nuclear magnetic resonance, mass spectrometry, solubility, and melting point detection.
# [2] = ABTS free radical capture ability; format: biochemical; details: 20 min reaction in the dark
# Procedure: 66.2 mg of K2S2O8 was weighed and placed in a 100 mL volumetric flask, pure water was added to the scale line to prepare a 2.45 mmol/L K2S2O8 solution. 192 mg of ABTS was accurately weighed and placed in a 25 mL volumetric flask, and the newly prepared K2S2O8 solution was added for dissolving and constant volume dilution, after standing in the dark for 20 h, the ABTS mother liquor was obtained. Before use, to make the measured value more accurate, the ABTS mother liquor needs to be diluted with a PBS solution of pH7.4 until the absorbance range of the ABTS working solution at 734 nm is 0.70±0.02.
# Drug concentration screening: To avoid the complete removal of free radicals by excessive drug concentration and the inability to compare the ability to capture ABTS free radicals, a preliminary screening of drug concentration is required before the formal test. A gradient concentration of compound solution was prepared, and a gradient concentration of Vit C solution was prepared as a positive control. A total of 450 μL of ABTS working solution was accurately absorbed into a 1.5 mL EP tube, and 150 μL of the gradient solution of each group of drugs was added, after 20 min of reaction in the dark, 150 μL of the reaction solution was taken and placed in a 96-well plate, the absorbance was measured by a microplate reader. Three duplicate wells were set for each concentration, and the drug concentration with absorbance between 0.2-0.7 was selected for subsequent determination.
# Determination operation: After the drug concentration screening was completed, 7 concentration gradient groups were set within this concentration range. A total of 450 μL of ABTS working solution was accurately absorbed into a 1.5 mL EP tube, and 150 μL of the gradient solution of each group of drugs was added. After 20 min of reaction in the dark, 150 μL of the reaction solution was taken and placed in a 96-well plate, the absorbance was measured by a microplate reader. Three duplicate wells were set for each concentration, the positive control group was a gradient solution of Vit C, and the blank control group was an equal volume of anhydrous ethanol.
# [3] = system: PC12 cells; assay: MTT toxicity (safety evaluation) on PC12 nerve cells; format: cell-based
# Procedure: The toxicity of each drug to PC12 cells was determined by MTT assay. The principle of the MTT colorimetric method: there is succinate dehydrogenase in the mitochondria of living cells, which can make exogenous MTT become blue-purple crystal formazan insoluble in water, this phenomenon cannot be observed in dead cells. The blue-purple crystal formazan can be dissolved by DMSO, and the absorbance value is measured by a microplate reader at a wavelength of 490 nm, which in turn reflects the number of living cells. […] The operation method is as follows:
# The cells were resuscitated with DMEM high glucose medium containing 10% fetal bovine serum and cultured in a 5% CO2 cell incubator at 37° C., when the cells grew to the logarithmic growth phase, they were inoculated into a 96-well plate and cultured for 24 hours, each well was added with 100 μL of each compound solution at the corresponding gradient concentration (60, 30, 15, 7.5, 3.75 μM), after incubation in the incubator for 24 h or 48 h, 20 μL of MTT was added to continue incubation for 4 h, the supernatant was discarded and 150 μL of DMSO was added to dissolve the blue-purple crystals, after shaking for 10 min, the cell viability was detected by a microplate reader, and classified according to the cytotoxicity standard. The relevant calculation formula is as follows: […]
# [4] = system: PC12 cells; assay: Inhibition of H2O2-induced oxidative damage in PC12 cells; format: cell-based, rat
# Procedure: After 24 hours of incubation in the incubator, the relative proliferation rates of the cells were calculated according to the method under Section 2.1.
# [5] = system: PC12 cells; assay: Inhibition of corticosterone (CORT)-induced PC12 cell damage; format: cell-based, rat; details: 3.75-60 μM drug with 514.6 μM CORT, 24 h, in words
# [6] = system: CUMS depression model mice; assay: Forced swimming test in CUMS depression model mice; format: in vivo, C57BL/6J mice; details: 10 mg/kg oral once a day
# Text: (§1) After one week of adaptive feeding, the newly purchased mice were divided into a blank group and CUMS model group. The mice in the blank group were not subjected to behavioral intervention and were fed normally. Mice in the model group were given 1-2 unpredictable behavioral stimuli every day. […] When the same stimulation is continuous, the stimulation method is changed to ensure that the same stimulation is not continuous, and the model construction period is 42 days.
# [7] = system: CUMS depression model mice; assay: Sucrose preference test in CUMS depression model mice; format: in vivo, C57BL/6J mice; details: 10 mg/kg oral once a day, 14th day, in words
# Text: as §1
# [8] = system: CUMS depression model mice; assay: Open field test in CUMS depression model mice; format: in vivo, C57BL/6J mice; details: 10 mg/kg oral once a day, 28 days; model 327.22±161.39 cm
# Text: as §1
# [9] = system: Nrf2, HO-1, BDNF, and TrkB in the hippocampus; assay: Western blot of hippocampal proteins in CUMS depression model mice; format: in vivo; details: in words
smiles,measurement,setting,value
"COc1cc(/C=C2\CN(C)C/C(=C\c3cc(Cl)c(O)c(OC)c3)C2=O)cc(Cl)c1O [CAK07, 3,5-bis ((E)-3-chloro-4-hydroxy-5-methoxybenzylidene)-1-methylpiperidin-4-one]",solubility,[1],34.77 mg/100 g
same,IC50 values of ABTS captured,[2],197.3 mg/L
same,cytotoxicity to PC12 cells,"[3]; 3.75-60 μM, 24 h and 48 h, in words",high
same,Rank (cytotoxicity standard) 24 h,"[3]; PC12, 3.75 μM",1
same,Relative growth rate (%) 24 h,"[3]; PC12, 3.75 μM",99.04 ± 1.89%
same,Rank (cytotoxicity standard) 48 h,"[3]; PC12, 3.75 μM",1
same,Relative growth rate (%) 48 h,"[3]; PC12, 3.75 μM",82.45 ± 2.34%
same,Rank (cytotoxicity standard) 24 h,"[3]; PC12, 7.5 μM",1
same,Relative growth rate (%) 24 h,"[3]; PC12, 7.5 μM",76.49 ± 0.75%
same,Rank (cytotoxicity standard) 48 h,"[3]; PC12, 7.5 μM",3
same,Relative growth rate (%) 48 h,"[3]; PC12, 7.5 μM",46.41±0.69%
same,Rank (cytotoxicity standard) 24 h,"[3]; PC12, 15 μM",2
same,Relative growth rate (%) 24 h,"[3]; PC12, 15 μM",60.78±0.55%
same,Rank (cytotoxicity standard) 48 h,"[3]; PC12, 15 μM",3
same,Relative growth rate (%) 48 h,"[3]; PC12, 15 μM",30.99 ± 0.02%
same,Rank (cytotoxicity standard) 24 h,"[3]; PC12, 30 μM",2
same,Relative growth rate (%) 24 h,"[3]; PC12, 30 μM",53.24 ± 0.51%
same,Rank (cytotoxicity standard) 48 h,"[3]; PC12, 30 μM",3
same,Relative growth rate (%) 48 h,"[3]; PC12, 30 μM",30.46 ± 0.54%
same,Rank (cytotoxicity standard) 24 h,"[3]; PC12, 60 μM",3
same,Relative growth rate (%) 24 h,"[3]; PC12, 60 μM",49.53 ± 0.31%
same,Rank (cytotoxicity standard) 48 h,"[3]; PC12, 60 μM",4
same,Relative growth rate (%) 48 h,"[3]; PC12, 60 μM",24.20 ± 0.74%
same,effect on survival of H2O2-damaged PC12 cells,"[4]; 7.5 μM drug, 24 h, in words",a certain cytoprotective effect
same,effect on viability of CORT-damaged PC12 cells,[5],did not show the potential to restore cell viability
"CNCCC(Oc1ccc(C(F)(F)F)cc1)c1ccccc1 (centres unmarked) [Flu, fluoxetine, reference compound]",cell survival rate,"[4]; 7.5 μM drug with 585.8 μM H2O2, 24 h",41.92±0.66%
same,effect on viability of CORT-damaged PC12 cells,[5],did not show the effect of restoring CORT-damaged cells
same,"forced swimming test, depressive symptoms / immobility time","[6]; 14th day, in words",did not show significant improvement in depressive symptoms
same,immobility time in the forced swimming test,[6]; 28 days,130.42 ± 59.96 s
same,sucrose preference rate,[7],failed to significantly increase the sucrose preference rate
same,overall activity distance in the open field test,[8],705.43±159.14 cm
same,"expression of Nrf2, HO-1, BDNF and TrkB",[9],also increased
